Results on five molecules are retold here after PMC7383607, “Kinetic and structural studies of Trypanosoma and Leishmania phosphofructokinases show evolutionary divergence and identify AMP as a switch regulating glycolysis versus gluconeogenesis” (The Febs Journal, 2020).

For orientation: Kd means the concentration at which binding is half-saturated. As a reminder, the Vmax is the top rate of the reaction or transport when substrate is in excess. Usually kcat stands for the number of substrate molecules converted per active site and unit of time at saturation. Usually stoichiometry N stands for a count of units in the complex or per binding partner.

For data set [1], the target named is T1, TcPFK (Trypanosoma cruzi phosphofructokinase) (Trypanosoma cruzi, UniProt Q4E657).
T1 construct: gene pfk; recombinant, E. coli, purified; N-terminal His6 tag (given for SPR); glycosomal homotetramer
T1 sequence (Q4E657 1-485): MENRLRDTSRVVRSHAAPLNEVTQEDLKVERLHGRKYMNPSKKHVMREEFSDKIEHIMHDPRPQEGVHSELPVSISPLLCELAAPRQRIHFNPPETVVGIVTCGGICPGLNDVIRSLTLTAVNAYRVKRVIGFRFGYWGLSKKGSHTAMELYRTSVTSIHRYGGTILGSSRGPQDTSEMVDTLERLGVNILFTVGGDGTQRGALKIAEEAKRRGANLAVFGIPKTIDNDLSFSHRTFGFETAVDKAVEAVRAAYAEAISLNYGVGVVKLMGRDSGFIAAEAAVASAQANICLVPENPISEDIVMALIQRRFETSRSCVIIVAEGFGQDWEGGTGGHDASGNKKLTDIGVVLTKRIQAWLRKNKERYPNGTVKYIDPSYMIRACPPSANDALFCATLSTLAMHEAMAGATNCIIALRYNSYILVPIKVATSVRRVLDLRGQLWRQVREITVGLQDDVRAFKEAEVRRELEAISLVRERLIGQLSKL
The data set is described as follows: SPR steady state, His6-PFK captured on Ni-NTA chip. Format: binding. The text has this:
SPR steady state, His6-PFK captured on Ni-NTA chip on TcPFK (Trypanosoma cruzi phosphofructokinase)

The target in data set [2] is T2, TbPFK (Trypanosoma brucei phosphofructokinase) (Trypanosoma brucei, UniProt O15648).
T2 construct: gene pfk; recombinant, E. coli, purified; N-terminal His6 tag (for SPR and reaction order tests); tetramer of 53-kDa subunits
T2 sequence (O15648 1-487): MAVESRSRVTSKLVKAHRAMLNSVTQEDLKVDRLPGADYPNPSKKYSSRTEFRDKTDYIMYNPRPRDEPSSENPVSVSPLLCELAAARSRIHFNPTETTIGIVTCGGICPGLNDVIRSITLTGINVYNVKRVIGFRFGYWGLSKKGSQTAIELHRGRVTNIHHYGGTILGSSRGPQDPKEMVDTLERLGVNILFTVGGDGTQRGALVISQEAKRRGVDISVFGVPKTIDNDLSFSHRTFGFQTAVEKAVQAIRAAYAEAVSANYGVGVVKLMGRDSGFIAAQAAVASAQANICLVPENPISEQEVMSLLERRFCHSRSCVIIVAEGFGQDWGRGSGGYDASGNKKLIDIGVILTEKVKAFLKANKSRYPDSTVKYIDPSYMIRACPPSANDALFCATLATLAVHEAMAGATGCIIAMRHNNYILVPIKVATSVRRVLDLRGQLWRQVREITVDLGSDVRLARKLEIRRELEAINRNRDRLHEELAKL
The data set is described as follows: SPR steady state, His6-PFK captured on Ni-NTA chip. The class given is binding. The text has this: SPR steady state, His6-PFK captured on Ni-NTA chip on TbPFK (Trypanosoma brucei phosphofructokinase)

Data set [3] has as its target T3, LiPFK (Leishmania infantum phosphofructokinase) (Leishmania infantum, UniProt A4I4W5).
T3 construct: gene pfk; recombinant, E. coli, purified; N-terminal His6 tag (given for SPR); glycosomal homotetramer
T3 sequence (A4I4W5 1-486): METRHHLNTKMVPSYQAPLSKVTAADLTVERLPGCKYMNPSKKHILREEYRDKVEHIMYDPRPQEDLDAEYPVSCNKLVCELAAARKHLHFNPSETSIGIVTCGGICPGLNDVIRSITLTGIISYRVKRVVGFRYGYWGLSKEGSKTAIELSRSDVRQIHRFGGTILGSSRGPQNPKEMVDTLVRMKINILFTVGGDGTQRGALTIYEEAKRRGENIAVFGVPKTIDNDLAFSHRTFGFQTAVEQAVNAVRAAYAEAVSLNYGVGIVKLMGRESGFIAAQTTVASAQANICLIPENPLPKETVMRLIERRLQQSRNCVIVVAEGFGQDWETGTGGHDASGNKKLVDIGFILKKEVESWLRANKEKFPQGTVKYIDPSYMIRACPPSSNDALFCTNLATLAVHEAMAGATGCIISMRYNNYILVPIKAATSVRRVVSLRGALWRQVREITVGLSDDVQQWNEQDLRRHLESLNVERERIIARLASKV
Kind of data set: SPR steady state, His6-PFK captured on Ni-NTA chip. Format: binding. The source says: SPR steady state, His6-PFK captured on Ni-NTA chip on LiPFK (Leishmania infantum phosphofructokinase)

Substrate in data set [4]: Nc1nc2c(ncn2[C@@H]2O[C@H](COP(=O)(O)OP(=O)(O)OP(=O)(O)O)[C@@H](O)[C@H]2O)c(=O)[nH]1
Kind of data set: pyruvate kinase-lactate dehydrogenase coupled assay, A340, sigmoidal fit. The class given is biochemical, Trypanosoma brucei. The settings on record: 3 mM F6P, no AMP, 10 mM MgCl2, 100 mM KCl, pH 7.4, 25 °C. The source says: pyruvate kinase-lactate dehydrogenase coupled assay, A340, sigmoidal fit on TbPFK (Trypanosoma brucei phosphofructokinase)

Data set [5] deals with the molecule itself. Kind of data set: crystal structure; TbPFK at 6 mg/mL in gel filtration buffer with 1 mM F16BP, 1 mM AMP and 500 µM PFK inhibitor, hanging drop, 18 °C, 9.5% PEG 8000, 0.1 M sodium cacodylate pH 7.4; only AMP seen bound; two tetramers in the asymmetric unit. Background: In gel filtration, larger molecules generally elute earlier.
Substrate in data set [6]: Nc1nc2c(ncn2[C@@H]2O[C@H](COP(=O)(O)OP(=O)(O)OP(=O)(O)O)[C@@H](O)[C@H]2O)c(=O)[nH]1
Kind of data set: pyruvate kinase-lactate dehydrogenase coupled assay, A340, sigmoidal fit. The class given is biochemical, Trypanosoma cruzi. The settings on record: 3 mM F6P, no AMP, 10 mM MgCl2, 100 mM KCl, pH 7.4, 25 °C. The text has this: pyruvate kinase-lactate dehydrogenase coupled assay, A340, sigmoidal fit on TcPFK (Trypanosoma cruzi phosphofructokinase)

Consider `Nc1ncnc2c1ncn2[C@@H]1O[C@H](COP(=O)(O)OP(=O)(O)O)[C@@H](O)[C@H]1O` [ADP], for which the Kd in data set [1] is 730 µM; in data set [2], 560 µM; in data set [3], 160 µM.

Consider `Nc1ncnc2c1ncn2[C@@H]1O[C@H](COP(=O)(O)O)[C@@H](O)[C@H]1O` [AMP], for which the figures for the Kd in data set [1], in data set [2] and in data set [3] were 1040 µM, 470 µM and 2300 µM, respectively.

For `Nc1ncnc2c1ncn2[C@@H]1O[C@H](COP(=O)(O)OP(=O)(O)OP(=O)(O)O)[C@@H](O)[C@H]1O` [ATP], the Kd was found to be 35.4 µM in data set [1], 15.8 µM in data set [2] and 16.8 µM in data set [3].

B1: Trypanosoma brucei phosphofructokinase (enzyme)
chain: T2 sequence (O15648 1-487)
notes: ATP-dependent phosphofructokinase of Trypanosoma brucei; 53-kDa subunit; residues up to 486 are named in the structure; The N-terminal His6 tag is stated for the SPR experiments and 'His-tagged TbPFK' for the kinetics; also called TbPFK; T. brucei PFK
For B1, in data set [4], the K0.5 was 123 (8) μM, the maximal velocity (Vmax) was determined as 38.3 µmol/min/mg and the turnover number (kcat) was found to be 35.6 s⁻¹. In addition, in data set [5], the “stoichiometry N” value was found to be 4.

B2: TcPFK (Trypanosoma cruzi phosphofructokinase) (Trypanosoma cruzi strain CL Brener) (protein)
chain: T1 sequence (Q4E657 1-485)
notes: recombinant, E. coli, purified; N-terminal His6 tag (given for SPR); glycosomal homotetramer
Regarding B2, in data set [6], the K0.5 is 195 (14) μM, the maximum rate (Vmax) worked out at 63 µmol/min/mg and the kcat was determined as 58.7 s⁻¹.
